pIC50: −log10 of the molar value. “Also recorded” adds a separate entry of the source. One block for each molecule: values may come before it. Bridge positions count the residues as written; N and C are the ends. Ends that are not written are not given here.
Columns and labels:
[1] = molecular target: T1, Recombinant human IL-23R-Fc (Homo sapiens, UniProt Q5VWK5); assay: Competitive ELISA, IL-23 binding to IL-23R; details: for pIC50: human IL-23 / IL-23R-Fc, read-out: IC50, Competitive ELISA; for inhibition of IL-23 binding to its receptor by modified polypeptides, Competitive ELISA: procedure of Example 6, compared with parent polypeptide
T1 construct: has the protein portion between the 24 amino acid residue to 353 amino acid residue; purchased R&D Systems 1400-IR-050
T1 sequence (Q5VWK5 24-353): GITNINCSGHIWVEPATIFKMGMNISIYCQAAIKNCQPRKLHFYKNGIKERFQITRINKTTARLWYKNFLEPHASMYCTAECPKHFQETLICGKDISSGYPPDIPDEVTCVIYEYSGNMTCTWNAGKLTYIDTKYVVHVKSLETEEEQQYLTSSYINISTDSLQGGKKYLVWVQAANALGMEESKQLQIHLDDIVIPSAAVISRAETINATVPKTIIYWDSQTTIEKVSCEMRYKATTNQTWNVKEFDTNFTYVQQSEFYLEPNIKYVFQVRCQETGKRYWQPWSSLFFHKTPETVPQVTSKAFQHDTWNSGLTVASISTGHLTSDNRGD
Experimental: The novel polypeptides were tested for their ability to inhibit IL-23 using a Competitive ELISA. In such an assay, IL-23R/Fc fusion protein was immobilized on a solid support. In this instance, the solid support was a 96-well plate, but the support may be any support that is typically used for an ELISA. The novel polypeptide and IL-23 were allowed to compete for binding to the immobilized IL-23R/Fc fusion protein. IL-23 that bound to IL-23R-Fc was detected using biotinylated anti-p40 antibody. The bound anti-p40 antibody was detected using streptavidin-horseradish peroxidase (HRP) and a tetramethylbenzidine (TMB) substrate was added to measure peroxidase activity. The color was measured at optical density (OD) 450nm. The color intensity was directly proportional to the amount of the bound IL-23 protein. […] (See, FIG. 16.)
(§1) FIG. 12 is a schematic depiction of the Competitive ELISA. Recombinant human IL-23R-Fc (2 μg/ml) was coated onto microtiter plates as a capture reagent. IL-23 and polypeptides were added to compete for binding to the immobilized IL-23R-Fc. IL-23 that bound to IL-23R-Fc was detected using biotinylated anti-p40 antibody (1:250). The bound anti-p40 antibody was detected using streptavidin-horseradish peroxidase (HRP) (1:500) and 100 μl/well of a tetramethylbenzidine (TMB) substrate was added to measure peroxidase activity. The color was measured at optical density (OD) 450nm. (See, FIG. 12). The color intensity was directly proportional to the amount of the bound IL-23 protein.
as §1, with “Recombinant” for “FIG. 12 is a schematic depiction of the Competitive ELISA. Recombinant”, “IL-23R-Fc. 50 μg human IL-23 (Cat. No. HZ-1048) (Humanzyme, Chicago, Ill.) in the presence or absence of 100 μM peptides was added to the well and incubated at 4° C. overnight.” for “IL-23R-Fc.”, “450nm.” for “450nm. (See, FIG. 12).”

[2] = molecular target: T2, IL-23R deletion proteins (Homo sapiens, UniProt Q5VWK5); assay: Immunoprecipitation with FLAG-tagged IL-23R deletion proteins; format: binding; details: 200 ng, anti-FLAG M2 immunoprecipitation, Western blot
T2 construct: made in house; host or cells: 293T cells (culture media)
T2 sequence (Q5VWK5 24-200): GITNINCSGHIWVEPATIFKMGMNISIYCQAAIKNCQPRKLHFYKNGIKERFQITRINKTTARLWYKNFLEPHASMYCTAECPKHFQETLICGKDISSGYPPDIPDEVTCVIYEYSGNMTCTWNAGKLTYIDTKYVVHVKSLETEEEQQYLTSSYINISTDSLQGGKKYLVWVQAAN
Experimental: (§2) In this study, we examined which regions of IL-23R proteins were required for the binding to IL-23 and polypeptide no. 23.15-fc fusion protein. To do so, we generated a series of IL-23R deletion proteins as illustrated in the FIG. 48.
(§3) Culture media from 293T cells transfected with different FLAG-tagged IL-23R deletion constructs were incubated with 200 ng of either IL-23 or polypeptide no. 23.15-fc fusion protein, then immunoprecipitated with anti-FLAG M2 affinity gel. The immunoprecipitate was subjected to Western blotting and polypeptide no. 23.15-Fc fusion protein or IL-23 was visualized with either anti-mouse IgG or anti-hIL-12/23p40 respectively. IL-23 or polypeptide no. […] 23.15-fc fusion protein (FIG. 48).

[3] = tested on: IL-23R deletion proteins; assay: as above; format: binding; details: 200 ng, anti-FLAG M2 immunoprecipitation, Western blot
Experimental: as §2, §3

[4] = molecular target: T3, IL-23R pathway in STAT3-Luc reporter DB cells (Homo sapiens, UniProt Q5VWK5); assay: STAT3-Luc reporter DB cells stimulated with IL-23 cytokines; format: cell-based
Experimental: In Example 29 (above), we detailed the development of stably transfected STAT3-Luc reporter clone. […] The stably transfected STAT3-Luc reporter DB cells (0.5×10^6 cells) were cultured in 100 μl of RPMI+10% FBS. Recombinant IL-23 (Humanzyme) or isolated IL-23 (WT or W5) was added to the cells and incubated at 37° C. for 4 hours. Luciferase activity was measured using Dual-Glo luciferase assay system (Promega).
The reporter luciferase activity increased by approximately 10 folds. Isolated WT IL-23 cytokine at different concentrations (50,000, 5,000, 500 and 50 ng/ml) was added to stimulate these stable cells. […] At the concentration of 50 ng/ml, the isolated WT IL-23 cytokine stimulates the IL-23R pathway as good as the recombinant IL-23 cytokine from Humazyme.

[5] = Solubility of synthetic polypeptides (precipitate in assay); format: physicochemical; details: under Competitive ELISA conditions
[6] = molecular target: T3, IL-23R pathway in STAT3-Luc reporter DB cells; assay: Cell-based STAT3-Luc reporter DB cell assay (DB-Luc), inhibition of IL-23; details: cyclic vs linear peptides
Experimental: (§4) The Cignal STAT3 reporter (SA Biosciences, CCS-9028L), designed to measure the transcriptional activity of STAT3 homodimers, was transiently transfected into the DB cells. The stably transfected STAT3-Luc reporter clone was selected using 200 ng/ml of Hygromycin B.
The stably transfected STAT3-Luc reporter DB cells (0.5×10^6) were cultured in 100 μl of RPMI+10% FBS. IL-23 was added to the cells and incubated at 37° C. for 4 hours. Luciferase activity was measured using Dual-Glo luciferase assay system (Promega).
The isolated cyclic polypeptide no. 23.15-Fc fusion protein and cyclic polypeptide no. 23.19 were used in a cell-based assay to measure the IC50 values. The stably transfected STAT3-Luc reporter DB cells (0.5×10^6) were cultured in 100 μl of RPMI+10% FBS. The cells were pre-incubated with different concentration of isolated cyclic polypeptide no. 23.15-Fc fusion protein or polypeptide no. 23.19 for 30 minutes at 37° C. 50 ng/ml of IL-23 was added to the cells and incubated at 37° C. for an additional 4 hours. Luciferase activity was measured using Dual-Glo luciferase assay system (Promega). The IC50 values of isolated cyclic polypeptide no. 23.15-Fc fusion protein and cyclic polypeptide no. 23.19 are 2.5 μM and 2.5 μM respectively.
The isolated peptide no. 7 (SEQ ID NO: 156) and peptide no. 23.19 (SEQ ID NO: 130) (it is a cyclic version of the polypeptide no. 23.15) were used in a cell based assay to compare their inhibitory activity. The stably transfected STAT3-Luc reporter DB cells (0.5×10^6) were cultured in 100 μl of RPMI+10% FBS. The cells were pre-incubated with two different concentrations (10 μM and 2 μM) of isolated peptides for 30 minutes at 37° C. 50 ng/ml of IL-23 was added to the cells and incubated at 37° C. for an additional 4 hours. Luciferase activity was measured using Dual-Glo luciferase assay system (Promega). The inhibitory activity of isolated peptide no. 7 (SEQ ID NO: 156) is better than that of peptide no. 23.19 (SEQ ID NO: 130) (a cyclic version of polypeptide no. 23.15 (SEQ ID NO: 126) (See, FIG. 62).
DB cells express IL-23R on the cell surface. In addition, IL-23 stimulated the DB cells through the activation of STAT3 by phosphorylation (p-STAT3) (Example 7 (Figures. 14 and 15)). Based on these observations, DB cells were used to develop a cell-based assay to measure the inhibitory activity of peptide and peptide-Fc fusion protein in the IL-23R pathway. […]
as §4, with “CCS-9028L), which is” for “CCS-9028L),”, “B. The activity of IL-23R pathway can be measured by the transcriptional activity of STAT3 homodimers. […]” for “B.”

Molecule: AMTWEDWWLYGR [compound 23]
- pIC50 [1]: > 5.81

Molecule: 7 CC (CMKTWVDYWLETQC; disulfide 1-14 (inferred); listed as Homo sapiens)
- inhibition of IL-23 binding to its receptor by modified polypeptides, Competitive ELISA [1]: did not abrogate the polypeptides' ability

Molecule: IL-23: heterodimeric cytokine of p19 and p40 subunits; recombinant from Humanzyme
- binding to IL-23R deletion protein 1-200 [2]: failed to bind
- binding to IL-23R deletion proteins 1-348, 1-318 or 1-250 [3]: detected in the precipitate
- increase of reporter luciferase activity ([4]; 50 ng/ml): approximately 10 folds

Molecule: DDWMQYWRQQVR [compound 27]
- pIC50 [1]: ~5.81

Molecule: NWATYWQLRHQT [compound 9]
- inhibitory activity in Competitive ELISA in relation to polypeptide no. 1 ([1]; 50 μM polypeptide, 30 ng/ml IL-23): significant and better inhibitory activity compared to peptide number 1; also recorded: inhibited IL-23 binding more than polypeptide no. 1
- pIC50 [1]: ~5.52

Molecule: 7HT AA (AMKTWVDYWLETQA; head-to-tail cyclic; listed as Homo sapiens)
- inhibition of IL-23 binding to its receptor by modified polypeptides, Competitive ELISA [1]: did not abrogate the polypeptides' ability
- inhibitory activity in cell-based DB-Luc assay [6]: did not eliminate the inhibitory activity

Molecule: SGASWVQYWVQR [Polypeptide no. 1]
- pIC50 [1]: 4.90 to 5.20

Molecule: WT: IL-23 cytokine with wild type p19 subunit, expressed in 293T cells
- stimulation of STAT3 reporter activity ([4]; 50,000, 5,000, 500 and 50 ng/ml): stimulates the STAT3 activity in a dose-dependent manner

Further lines, results first:

- solubility [5]: insoluble
Molecule: SGWWWVQYWVQR [1.20]

- solubility [5]: formed a precipitate
Molecule: ASWVQYWVQ [1.4]

- solubility [5]: insoluble
Molecule: SGAWWVQYWVQR [1.18]

- solubility [5]: insoluble
Molecule: SGASWVQYWWWR [1.21]

- solubility [5]: formed a precipitate
Molecule: SGASWVQFWVQR [1.17]

- inhibition of IL-23 binding to its receptor by modified polypeptides, Competitive ELISA [1]: at least as effective
Molecule: CSCC[C@H](NC(=O)[C@H](C)N)C(=O)N[C@H](C(=O)N[C@@H](Cc1c[nH]c2ccccc12)C(=O)N[C@@H](CCC(N)=O)C(=O)N[C@@H](CC(=O)O)C(=O)N[C@@H](Cc1ccc(O)cc1)C(=O)N[C@@H](Cc1c[nH]c2ccccc12)C(=O)N[C@@H](CC(C)C)C(=O)N[C@@H](Cc1ccc(O)cc1)C(=O)NCC(=O)N[C@@H](CCCNC(=N)N)C(=O)O)[C@@H](C)O [23.15]

Reference: patent US9605027B2, “Polypeptides that bound to IL-23 receptor and inhibit binding of IL-23 and cell signaling thereof” (Medical Diagnostic Laboratories, LLC, priority 2011, dated 2017)
